# Columns and labels:
# [1] = biological target: Neuropeptide Y receptor type 5 (Rattus norvegicus, UniProt Q63634); experiment: Radioligand binding assay (rat NPY5R, CHO cells); type: cell-based
# [2] = biological target: Neuropeptide Y receptor type 4 (Rattus norvegicus, UniProt Q63447); experiment: Radioligand binding assay (rat NPY4R, CHO cells); type: cell-based
# [3] = biological target: T1, Neuropeptide Y receptor type 2 (Homo sapiens, UniProt P49146); experiment: Radioligand binding assay (NPY2R, SMS-KAN cells); type: cell-based
# T1 sequence (P49146 whole entry): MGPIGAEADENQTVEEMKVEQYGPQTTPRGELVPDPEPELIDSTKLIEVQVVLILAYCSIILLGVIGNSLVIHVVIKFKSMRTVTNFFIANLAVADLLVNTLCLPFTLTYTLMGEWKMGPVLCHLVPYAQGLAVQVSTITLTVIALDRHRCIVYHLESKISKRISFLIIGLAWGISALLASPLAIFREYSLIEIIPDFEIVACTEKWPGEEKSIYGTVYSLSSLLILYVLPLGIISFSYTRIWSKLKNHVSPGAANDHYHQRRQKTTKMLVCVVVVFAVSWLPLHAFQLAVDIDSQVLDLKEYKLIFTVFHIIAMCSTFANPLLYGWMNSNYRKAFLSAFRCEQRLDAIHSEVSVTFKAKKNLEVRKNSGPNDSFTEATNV
# [4] = biological target: T1, Neuropeptide Y receptor type 2; experiment: Radioligand binding assay (NPY2R, BHK); type: cell-based, BHK-21
# [5] = biological target: Neuropeptide Y receptor type 4 (Homo sapiens, UniProt P50391); experiment: Radioligand binding assay (human NPY4R, CHO cells); type: cell-based
# [6] = biological target: Neuropeptide Y receptor type 5 (Homo sapiens, UniProt Q15761); experiment: Radioligand binding assay (human NPY5R, HEK293); type: cell-based
# Neuropeptide Y receptor type 5 (Homo sapiens, UniProt Q15761), sequence (Q15761 whole entry): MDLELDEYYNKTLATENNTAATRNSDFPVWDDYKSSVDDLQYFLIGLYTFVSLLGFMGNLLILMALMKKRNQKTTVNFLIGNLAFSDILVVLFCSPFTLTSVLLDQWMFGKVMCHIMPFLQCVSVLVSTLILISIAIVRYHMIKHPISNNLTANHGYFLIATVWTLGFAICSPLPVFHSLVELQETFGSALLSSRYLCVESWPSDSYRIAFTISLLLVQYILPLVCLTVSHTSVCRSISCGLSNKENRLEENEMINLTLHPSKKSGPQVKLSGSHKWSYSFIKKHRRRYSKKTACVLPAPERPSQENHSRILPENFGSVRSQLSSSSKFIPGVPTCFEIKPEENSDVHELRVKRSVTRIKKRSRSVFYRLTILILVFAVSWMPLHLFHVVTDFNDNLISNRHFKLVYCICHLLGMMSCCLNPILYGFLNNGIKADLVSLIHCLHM
# Neuropeptide Y receptor type 4 (Rattus norvegicus, UniProt Q63447), sequence (Q63447 whole entry): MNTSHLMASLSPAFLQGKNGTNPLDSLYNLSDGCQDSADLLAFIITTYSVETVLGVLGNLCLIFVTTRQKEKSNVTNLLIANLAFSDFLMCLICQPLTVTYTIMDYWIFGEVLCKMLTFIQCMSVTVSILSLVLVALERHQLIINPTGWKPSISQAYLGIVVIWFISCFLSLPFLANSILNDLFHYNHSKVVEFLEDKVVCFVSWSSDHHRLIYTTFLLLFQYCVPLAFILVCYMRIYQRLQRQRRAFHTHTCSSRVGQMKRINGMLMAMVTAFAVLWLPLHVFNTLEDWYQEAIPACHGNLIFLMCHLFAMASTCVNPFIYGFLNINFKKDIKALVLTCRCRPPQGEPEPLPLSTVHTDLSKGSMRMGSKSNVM
# Neuropeptide Y receptor type 5 (Rattus norvegicus, UniProt Q63634), sequence (Q63634 whole entry): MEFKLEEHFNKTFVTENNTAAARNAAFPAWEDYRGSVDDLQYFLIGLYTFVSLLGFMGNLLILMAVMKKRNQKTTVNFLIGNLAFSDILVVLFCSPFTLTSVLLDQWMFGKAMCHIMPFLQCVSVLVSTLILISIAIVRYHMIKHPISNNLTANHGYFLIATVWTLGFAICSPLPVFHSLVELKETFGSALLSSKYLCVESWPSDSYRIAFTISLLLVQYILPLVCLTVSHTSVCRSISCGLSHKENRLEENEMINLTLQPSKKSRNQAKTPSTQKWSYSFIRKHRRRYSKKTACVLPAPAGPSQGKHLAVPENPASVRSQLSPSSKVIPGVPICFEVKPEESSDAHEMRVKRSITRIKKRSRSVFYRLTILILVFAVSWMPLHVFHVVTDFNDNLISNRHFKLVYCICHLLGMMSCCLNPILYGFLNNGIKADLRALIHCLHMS
# Neuropeptide Y receptor type 4 (Homo sapiens, UniProt P50391), sequence (P50391 whole entry): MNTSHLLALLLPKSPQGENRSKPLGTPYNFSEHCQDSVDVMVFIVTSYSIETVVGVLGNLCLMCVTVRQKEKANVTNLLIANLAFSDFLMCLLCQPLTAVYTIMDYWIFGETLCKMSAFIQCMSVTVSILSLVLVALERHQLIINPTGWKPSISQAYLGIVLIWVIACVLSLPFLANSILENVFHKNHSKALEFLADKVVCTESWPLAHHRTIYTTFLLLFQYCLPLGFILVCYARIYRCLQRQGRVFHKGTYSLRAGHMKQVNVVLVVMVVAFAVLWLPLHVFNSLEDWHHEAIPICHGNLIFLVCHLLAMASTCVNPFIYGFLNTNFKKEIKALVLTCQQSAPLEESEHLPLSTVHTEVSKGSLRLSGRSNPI
structure (smiles),measurement,setting,value
N=C(N)NCCC[C@H](NC(=O)C(c1ccccc1)c1ccccc1)C(=O)NCc1ccc(CNC(N)=O)cc1,IC50,[1],23 µM (not active)
same,IC50,[2],> 10 µM (not active)
same,IC50,[3],> 10 µM (not active)
same,IC50,[4],> 10 µM (not active)
same,IC50,[5],24 µM (not active)
same,IC50,[6],28 µM (not active)
